These results are taken from paper PMC8594587 (Journal of medicinal chemistry, 2021).

One data set has as its system HIV-2 ROD. In words: Anti-HIV-2 ROD activity in MT-4 cells, MTT method. The format is cell-based. The note with it: Human immunodeficiency virus 2, MT4, read-out: EC50 ROD.
Data set [1] in a line: Acute toxicity test in Kunming mice. The format is in vivo. As to conditions: Kunming, mouse, in vivo, po.
A further data set deals with Kunming mice. Kind of data set: Acute toxicity test in Kunming mice. The format is in vivo. As to conditions: Kunming mice.
Another data set in a line: in vivo. As to conditions: Sprague-Dawley, rat, iv, 2 mg/kg.
The subject of data set [2] is HIV-1 K103N+Y181C (RES056). Kind of data set: microbe, parasite or virus in culture. The format is cell-based. The note with it: Human immunodeficiency virus 1, MT4, read-out: EC50 RES056.
The subject of the next data set is HIV-1 F227L+V106A. The format is cell-based. The note with it: Human immunodeficiency virus 1, MT4, read-out: EC50 F227L+V106A.

As to `Cc1cc(C#N)cc(C)c1Oc1nc(NC2CCN(Cc3ccc(S(C)(=O)=O)cc3)CC2)ncc1-c1ccco1` [Compound 13b, 4-((5-(furan-2-yl)-2-((1-(4-(methylsulfonyl)benzyl)piperidin-4-yl)amino)pyrimidin-4-yl)oxy)-3,5-dimethylbenzonitrile], in the data set with HIV-2 ROD, the EC50 was more than 7.46 µM.

Turning to `Cc1cc(C#N)cc(C)c1Oc1nc(NC2CCN(Cc3ccc(C(N)=O)cc3)CC2)ncc1-c1ccncc1` [Compound 16c, 4-((4-((4-(4-cyano-2,6-dimethylphenoxy)-5-(pyridin-4-yl)pyrimidin-2-yl)amino)piperidin-1-yl)methyl)benzamide], the EC50 in the data set with HIV-2 ROD was more than 36 µM. The compound also gave an LD50 at 2 weeks in data set [1] of more than 2000 mg/kg. Moreover, the “acute toxicity, tolerability” value in the data set on Kunming mice (single oral dose) is listed as “well-tolerated up to a dose of 2000 mg/kg with no acute toxicity”. Also, the body weight change entry in the data set with Kunming mice (single oral dose 2000 mg/kg) is recorded as “no abnormality of body weight changed”. The “toxic symptoms or mortality” value in the data set on Kunming mice (single oral dose 2000 mg/kg, subsequent two weeks) is “did not exhibit any toxic symptoms or mortality”. Moreover, the Tmax in “in vivo” is 1.98 min.

On to `Cc1cc(C#N)cc(C)c1Oc1nc(NC2CCN(Cc3ccc(S(N)(=O)=O)cc3)CC2)ncc1-c1cccs1` [Compound 11a, 4-((4-((4-(4-cyano-2,6-dimethylphenoxy)-5-(thiophen-2-yl)pyrimidin-2-yl)amino)piperidin-1-yl)methyl)benzenesulfonamide], for which the EC50 with HIV-2 ROD was not below 33.4 µM.

`Cc1cc(C#N)cc(C)c1Oc1nc(Nc2ccc(C#N)cc2)nc(N)c1Br` [ETR, etravirine]: the figures for the EC50 (in data set [2]; with HIV-1 F227L+V106A) were 0.0522 ± 0.0242 µM and 0.0269 ± 0.0023 µM, respectively.

Turning to `Cc1cc(C#N)cc(C)c1Oc1nc(NC2CCN(Cc3ccc(S(N)(=O)=O)cc3)CC2)ncc1-c1ccsc1` [Compound 12a, 4-((4-((4-(4-cyano-2,6-dimethylphenoxy)-5-(thiophen-3-yl)pyrimidin-2-yl)amino)piperidin-1-yl)methyl)benzenesulfonamide], the EC50 in the data set with HIV-2 ROD was more than 6.12 µM.

For `Cc1cc(C#N)cc(C)c1Oc1nc(NC2CCN(Cc3ccc(C(N)=O)cc3)CC2)ncc1-c1ccoc1` [Compound 14c, 4-((4-((4-(4-cyano-2,6-dimethylphenoxy)-5-(furan-3-yl)pyrimidin-2-yl)amino)piperidin-1-yl)methyl)benzamide], in the data set with HIV-2 ROD, the EC50 was more than 182 µM.
